SMILES strings stand for the structures.

One may read the Ki as the equilibrium dissociation constant of an inhibitor or competing ligand from its target. In general, IC50 refers to the midpoint of a concentration-inhibition curve. High values mean weaker potency, low ones greater potency. A word on the melting point: it is the temperature, or range, at which the solid turns liquid. What is called EC50 is the concentration at which the effect is half-maximal. Higher therefore signals a need for much substance.

Series [1] addresses T1, (human) A2A adenosine receptor (Homo sapiens, UniProt P29274).
T1 construct: purchased PerkinElmer Research Products (Boston, Mass.); host or cells: HEK-293 cell membranes, stably transfected
In words: Radioligand binding test ([3H]-CGS21680 displacement). Particulars: for Ki: calculated from IC50 by Cheng-Prusoff equation, [S] 25 nM, Km 22 nM; for IC50: hA2A HEK-293 cell membrane, [3H]-CGS21680 25 nM, 25° C. 90 minutes. On the procedure: [3H]-CGS21680 (2-[p-(2-carboxyethyl)phenylethylamino]-5′-N-ethylcarboxamido-adenosine, [carboxy-1-ethyl-3H(N)]—; 250 μCi): purchased from PerkinElmer Research Products (Boston, Mass.);
The cell membrane stably transfected with (human) A2A adenosine receptor was prepared in HEK-293 cells, and the cell membrane was obtained from PerkinElmer Research Products (Boston, Mass.);
CGS 21680 (2-[p-(2-carboxyethyl)phenylethylamino]-5′-N-ethylcarboxamidoadenosine) was purchased from Selleck (Shanghai, CN);
The A2A adenosine receptors used were all expressed in the cell membrane. Each compound was continuously diluted 3 times with DMSO (Solarbio, D8371-250 ml) to generate compound source plates with 10 different concentrations (10 μM, 3.3 μM, 1.1 μM, 0.37 μM, 0.12 μM, 0.0412 μM, 0.0137 μM, 0.0046 μM, 0.0015 μM, 0.0005 μM), 250 nL of compounds were added to 384-well Opti-plate, sealed with parafilm; 1 mL of assay buffer (containing 50 mM Tris-HCl, pH 7.4, 10 mM MgCl2, 1 mM EDTA, 1 μg/mL adenosine deaminase) was added to 20 U hA2A HEK-293 cell membrane for dilution, 0.75 μCi [3H]-CGS21680 (final 25 nM) was added to the diluted cell membrane and mixed well; 50 μL of the prepared cell membrane dilution was transferred to the 384-well Opti-plate containing fresh compounds and incubated at 25° C. for 90 minutes; 100 μL of 0.5% polyethyleneimine solution (PEI) was added to UNIFILTER-96 GF/B filter plate, and soaked at 4° C. for 90 minutes, then the UNIFILTER-96 GF/B filter plate was washed twice with 500 μL of washing buffer per well (washing buffer contained 50 mM Tris-HCl pH 7.4, 154 mM NaCl) which was transferred by Cell Harvester; then, the mixture system in the Opti-plate was transferred to the cleaned UNIFILTER-96 GF/B filter plate, and then the UNIFILTER-96 GF/B filter plate was washed 9 times with 500 μL of washing buffer per well (washing buffer contained 50 mM Tris-HCl, pH 7.4, 154 mM NaCl), and incubated for 3 minutes in a 37° C. incubator; 40 μL of ULTIMA GOLD scintillation fluid (Perkin Elmer, Cat #77-16061) was added to each well, MicroBeta liquid scintillation counter (PerkinElmer) was used to read CPM (count per minute) value. The specific binding percentage of [3H]CGS21680 was calculated according to the CPM value, % specific binding of [3H]CGS21680=(CPMsample−CPMLow Control)/(CPMHigh Control−CPMLow Control)*100, wherein High Control was 0.5% DMSO, Low Control was 100 μM CGS21680. According to the compound concentration and the specific binding percentage of [3H]CGS21680, curve fitting was performed to calculate IC50 value.
The binding inhibition constant (Ki) value was calculated from the IC50 value according to the Cheng-Prusoff equation, Ki=IC50/(1+[S]/Km), wherein [S] was radioligand concentration (25 nM), and Km was human A2AAR dissociation constant of [3H]CGS21680 (22 nM).

The target of series [2] is human adenosine receptor A2A (hADORA2A-HEK293 cells) (Homo sapiens, UniProt P29274). In words: cAMP test of A2A adenosine receptor. Particulars: LANCE Ultra cAMP kit. Type of series: cell-based. The text has this: DMEM/F12, G418, Penicillin-Streptomycin, Versene solution, HEPES, Hank's buffer saline aqueous solution, PBS (pH 7.4, 1×, sterile), FBS, 7.5% BSA stabilizer, Rolipram, NECA, were purchased from Gibico, Hyclone and Sigma, respectively;
LANCE® Ultra cAMP kit (containing Eu-cAMP tracer, Ulight-anti-cAMP reagent, cAMP detection buffer) and hADORA2A-HEK293 cells were purchased from PerkinElmer Research Products (Boston, Mass.);
The cells stably expressing human adenosine receptor A2A (hADORA2A-HEK293 cells) were cultured in DMEM/F12 medium containing 10% FBS, 1× Penicillin-Streptomycin and 400 μg/ml G418 in the environment of 37° C. and 5% CO2. Before the experiment, the cells were digested with Versene solution. […] EnVison microplate reader (EnVision multimode plate reader, PerkinElmer) was used to determine the level of cyclic adenosine monophosphate in the final solution (λex=320 nm, λem=665 nm & 615 nm). The EC50 (nM) value that stimulated the production level of cyclic adenosine monophosphate when the test compound interacted with the A2A adenosine receptor was calculated. The A2A receptor agonist titer of the compound was expressed as the EC50 (nM) value that stimulated the production level of cyclic adenosine monophosphate when the compound interacted with the A2A adenosine receptor. […]
On the technique in general: TR-FRET usually uses a lanthanide donor and a delayed reading to cut background.

T1 sequence (P29274 whole entry): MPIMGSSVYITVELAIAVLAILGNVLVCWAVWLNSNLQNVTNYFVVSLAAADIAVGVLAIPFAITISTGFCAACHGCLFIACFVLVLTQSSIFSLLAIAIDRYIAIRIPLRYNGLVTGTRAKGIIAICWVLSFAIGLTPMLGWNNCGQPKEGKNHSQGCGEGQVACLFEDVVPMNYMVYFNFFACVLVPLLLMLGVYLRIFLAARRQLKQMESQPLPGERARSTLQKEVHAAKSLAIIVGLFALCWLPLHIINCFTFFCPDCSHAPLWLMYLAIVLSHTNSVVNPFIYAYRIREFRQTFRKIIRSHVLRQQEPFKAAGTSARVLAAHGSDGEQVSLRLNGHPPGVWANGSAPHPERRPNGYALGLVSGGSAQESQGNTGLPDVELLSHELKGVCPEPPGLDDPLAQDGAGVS
Sequence of human adenosine receptor A2A (hADORA2A-HEK293 cells) (P29274 whole entry): as above

In the case of `Nc1nc(-c2ccc(NC(=O)Nc3cccnc3)cc2)nc2c1ncn2[C@@H]1O[C@H](CO)[C@@H](O)[C@H]1O` [Compound 1, 1-{4-{6-amino-9-[(2R,3R,4S,5R)-3,4-dihydroxy-5-(hydroxymethyl)tetrahydrofuran-2-yl]-9H-purin-2-yl}phenyl}-3-(pyridin-3-yl)urea], the melting point amounted to 230 °C. For the same molecule, in series [1], the Ki was 778 nM and the IC50 is 1660 nM.

`Nc1nc(-c2ccc(NC(=O)Nc3ccc(CO)cc3)cc2)nc2c1ncn2[C@@H]1O[C@H](CO)[C@@H](O)[C@H]1O` [Compound 2, 1-{4-{6-amino-9-[(2R,3R,4S,5R)-3,4-dihydroxy-5-(hydroxymethyl)tetrahydrofuran-2-yl]-9H-purin-2-yl}phenyl}-3-[4-(hydroxymethyl)phenyl]urea] had a melting point of 174 °C. For the same molecule, in series [1], the Ki is 16.4 nM and the half-maximal inhibitory concentration (IC50) stood at 35 nM. In series [2], it took 228 nM to reach a half-maximal effect (EC50).

In turn, `Nc1nc(-c2ccc(NC(=O)NC3CC3)cc2)nc2c1ncn2[C@@H]1O[C@H](CO)[C@@H](O)[C@H]1O` [Compound 3, 1-{4-{6-amino-9-[(2R,3R,4S,5R)-3,4-dihydroxy-5-(hydroxymethyl)tetrahydrofuran-2-yl]-9H-purin-2-yl}phenyl}-3-cyclopropylurea] showed a melting point of 174 °C. In addition, in series [1], the Ki is 15.9 nM and the IC50 amounted to 34 nM.
